According to US5728710A, “Rapamycin derivatives” (SmithKline Beecham Corporation, priority 1995, dated 1998):

system: Saccharomyces cerevisiae; assay: Assay for Antifungal Activity (agar well zone of inhibition); format: cell-based; details: zones of inhibition after 48 hours, YPD agar
Protocol: Yeast organism (Saccharomyces cerevisiae) in logarithmic growth were plated on complete agar medium (YPD). Compounds dissolved in an appropriate aqueous or organic solvent were placed in wells punched in the agar. Plates were incubated for 48 hours and zones of inhibition were measured.

Molecule | Antifungal IC12
7-Demethoxy-7 (S)-(2' 4'-dimethoxyphenyl)-rapamycin [Example 15] | < 500 ng/mL
COc1ccc(C2CC3CCC(C)C(O)(O3)C(=O)C(=O)N3CCCCC3C(=O)OC(C(C)CC3CCC(O)C(OC)C3)CC(=O)C(C)C=C(C)C(O)C(OC)C(=O)C(C)CC(C)C=CC=CC=C2C)c(OC)c1 [Example 16, 7-Demethoxy-7 (R)-2',4'-dimethoxyphenyl)-rapamycin] | < 500 ng/mL

system: Spleen cells from BDF1 female mice; assay: Mitogenesis Assay for Immunosuppressive Activity (concanavalin A, 3H-thymidine); format: cell-based; details: Concanavalin A 5 μg/ml, 72 hours at 37° C., 3H-thimidine uptake last 18 hours; read-out: Mitogenesis IC50
Protocol: Spleen cells from BDF1 female mice were established in RPMI with 10% fetal calf serum at 5×10^6 /mL. One hundred […] of this suspension (5×10^5 cells) were dispensed into 96-well round-bottomed microtiter plates (Linbro, Flow Laboratories). Concanavalin A (5 μg/ml) was added as the mitogenic stimulus, and the final volume in the microtiter wells was adjusted to 200 μL with RPMI. Cell cultures were incubated for 72 hours at 37° C. in a 5% CO2 atmosphere and pulsed with 0.5 μCi ^3 H-thymidine (specific activity […]) for the last 18 hours of the 72 hour culture. The cells were harvested on an automated multiple sample harvester and cell-associated radioactivity counted in a Beckman liquid scintillation counter. The results are expressed as the mean values derived from quadruplicate measurements. Cell viability was determined by trypan blue exclusion after 72 hours of incubation. Compounds to be tested were added to the microtiter plates at the appropriate dilutions prior to the addition of cells.

Molecule | IC50
7-Demethoxy-7 (S)-(2' 4'-dimethoxyphenyl)-rapamycin [Example 15] | < 500 nM
COc1ccc(C2CC3CCC(C)C(O)(O3)C(=O)C(=O)N3CCCCC3C(=O)OC(C(C)CC3CCC(O)C(OC)C3)CC(=O)C(C)C=C(C)C(O)C(OC)C(=O)C(C)CC(C)C=CC=CC=C2C)c(OC)c1 [Example 16, 7-Demethoxy-7 (R)-2',4'-dimethoxyphenyl)-rapamycin] | < 1000 nM

same assay, conditions: Mus musculus, read-out: Mitogenesis IC50

Molecule | IC50
CO[C@@H]1C[C@@H]2CC[C@@H](C)[C@@](O)(O2)C(=O)C(=O)N2CCCC[C@H]2C(=O)O[C@H]([C@H](C)C[C@@H]2CC[C@@H](O)[C@H](OC)C2)CC(=O)[C@H](C)/C=C(\C)[C@@H](O)[C@@H](OC)C(=O)[C@H](C)C[C@H](C)/C=C/C=C/C=C/1C [Example 20, 7-Epirapamycin] | < 500 nM

same assay, conditions: Mus musculus; Concanavalin A 5 μg/ml, 72 hours at 37° C., 3H-thimidine uptake last 18 hours; read-out: Mitogenesis IC50

Molecule | IC50
CCO[C@H]1C[C@@H]2CC[C@@H](C)[C@@](O)(O2)C(=O)C(=O)N2CCCC[C@H]2C(=O)O[C@H]([C@H](C)C[C@@H]2CC[C@@H](O)[C@H](OC)C2)CC(=O)[C@H](C)/C=C(\C)[C@@H](O)[C@@H](OC)C(=O)[C@H](C)C[C@H](C)/C=C/C=C/C=C/1C [Example 1, 7-Demethoxy-7(S)-ethoxyrapamycin] | < 500 nM
CCO[C@@H]1C[C@@H]2CC[C@@H](C)[C@@](O)(O2)C(=O)C(=O)N2CCCC[C@H]2C(=O)O[C@H]([C@H](C)C[C@@H]2CC[C@@H](O)[C@H](OC)C2)CC(=O)[C@H](C)/C=C(\C)[C@@H](O)[C@@H](OC)C(=O)[C@H](C)C[C@H](C)/C=C/C=C/C=C/1C [Example 2, 7-Demethoxy-7(R)-ethoxyrapamycin] | < 500 nM
COc1ccc(CO[C@H]2C[C@@H]3CC[C@@H](C)[C@@](O)(O3)C(=O)C(=O)N3CCCC[C@H]3C(=O)O[C@H]([C@H](C)C[C@@H]3CC[C@@H](O)[C@H](OC)C3)CC(=O)[C@H](C)/C=C(\C)[C@@H](O)[C@@H](OC)C(=O)[C@H](C)C[C@H](C)/C=C/C=C/C=C/2C)cc1OC [Example 3, 7-Demethoxy-7(S)-(3,4-dimethoxybenzyloxy)rapamycin] | < 500 nM
CO[C@@H]1C[C@H](C[C@@H](C)[C@@H]2CC(=O)[C@H](C)/C=C(\C)[C@@H](O)[C@@H](OC)C(=O)[C@H](C)C[C@H](C)/C=C/C=C/C=C(\C)[C@@H](OCCO)C[C@@H]3CC[C@@H](C)[C@@](O)(O3)C(=O)C(=O)N3CCCC[C@H]3C(=O)O2)CC[C@H]1O [Example 4, 7-Demethoxy-7(S)-(2-hydroxyethoxy)rapamycin] | < 500 nM
CO[C@@H]1C[C@H](C[C@@H](C)[C@@H]2CC(=O)[C@H](C)/C=C(\C)[C@@H](O)[C@@H](OC)C(=O)[C@H](C)C[C@H](C)/C=C/C=C/C=C(\C)[C@H](OCCO)C[C@@H]3CC[C@@H](C)[C@@](O)(O3)C(=O)C(=O)N3CCCC[C@H]3C(=O)O2)CC[C@H]1O [Example 5, 7-Demethoxy-7(R)-(2-hydroxyethoxy)rapamycin] | < 500 nM
CO[C@@H]1C[C@H](C[C@@H](C)[C@@H]2CC(=O)[C@H](C)/C=C(\C)[C@@H](O)[C@@H](OC)C(=O)[C@H](C)C[C@H](C)/C=C/C=C/C=C(\C)[C@H](OC(C)=O)C[C@@H]3CC[C@@H](C)[C@@](O)(O3)C(=O)C(=O)N3CCCC[C@H]3C(=O)O2)CC[C@H]1O [Example 6, 7-Demethoxy-7(R)-acetoxyrapamycin] | < 500 nM
CO[C@@H]1C[C@H](C[C@@H](C)[C@@H]2CC(=O)[C@H](C)/C=C(\C)[C@@H](O)[C@@H](OC)C(=O)[C@H](C)C[C@H](C)/C=C/C=C/C=C(\C)[C@@H](c3ccco3)C[C@@H]3CC[C@@H](C)[C@@](O)(O3)C(=O)C(=O)N3CCCC[C@H]3C(=O)O2)CC[C@H]1O [Example 7, 7-Demethoxy-7(S)-(2'-furanyl)rapamycin] | < 500 nM
CO[C@@H]1C[C@H](C[C@@H](C)[C@@H]2CC(=O)[C@H](C)/C=C(\C)[C@@H](O)[C@@H](OC)C(=O)[C@H](C)C[C@H](C)/C=C/C=C/C=C(\C)CC[C@@H]3CC[C@@H](C)[C@@](O)(O3)C(=O)C(=O)N3CCCC[C@H]3C(=O)O2)CC[C@H]1O [Example 8, 7-Demethoxyrapamycin] | < 500 nM
CO[C@@H]1C[C@H](C[C@@H](C)[C@@H]2CC(=O)[C@H](C)/C=C(\C)[C@@H](O)[C@@H](OC)C(=O)[C@H](C)C[C@H](C)/C=C/C=C/C=C(\C)[C@@H](SC)C[C@@H]3CC[C@@H](C)[C@@](O)(O3)C(=O)C(=O)N3CCCC[C@H]3C(=O)O2)CC[C@H]1O [Example 9, 7-Demethoxy-7(S)-methylthiorapamycin] | < 500 nM
CO[C@@H]1C[C@H](C[C@@H](C)[C@@H]2CC(=O)[C@H](C)/C=C(\C)[C@@H](O)[C@@H](OC)C(=O)[C@H](C)C[C@H](C)/C=C/C=C/C=C(\C)[C@H](SC)C[C@@H]3CC[C@@H](C)[C@@](O)(O3)C(=O)C(=O)N3CCCC[C@H]3C(=O)O2)CC[C@H]1O [Example 10, 7-Demethoxy-7(R)-methylthiorapamycin] | < 500 nM
CO[C@@H]1C[C@H](C[C@@H](C)[C@@H]2CC(=O)[C@H](C)/C=C(\C)[C@@H](O)[C@@H](OC)C(=O)[C@H](C)C[C@H](C)/C=C/C=C/C=C(\C)[C@@H](Sc3ccccc3)C[C@@H]3CC[C@@H](C)[C@@](O)(O3)C(=O)C(=O)N3CCCC[C@H]3C(=O)O2)CC[C@H]1O [Example 11, 7-Demethoxy-7 (S)-phenylthiorapamycin] | < 500 nM
C=CC[C@H]1C[C@@H]2CC[C@@H](C)[C@@](O)(O2)C(=O)C(=O)N2CCCC[C@H]2C(=O)O[C@H]([C@H](C)C[C@@H]2CC[C@@H](O)[C@H](OC)C2)CC(=O)[C@H](C)/C=C(\C)[C@@H](O)[C@@H](OC)C(=O)[C@H](C)C[C@H](C)/C=C/C=C/C=C/1C [Example 13, 7-Demethoxy-7(S)-allylrapamycin] | < 500 nM
CO[C@@H]1C[C@H](C[C@@H](C)[C@@H]2CC(=O)[C@H](C)/C=C(\C)[C@@H](O)[C@@H](OC)C(=O)[C@H](C)C[C@H](C)/C=C/C=C/C=C(\C)[C@H](c3ccco3)C[C@@H]3CC[C@@H](C)[C@@](O)(O3)C(=O)C(=O)N3CCCC[C@H]3C(=O)O2)CC[C@H]1O [Example 14, 7-Demethoxy-7(R)-(2'-furanyl)rapamycin] | < 500 nM
CO[C@@H]1C[C@H](C[C@@H](C)[C@@H]2CC(=O)[C@H](C)/C=C(\C)[C@@H](O)[C@@H](OC)C(=O)[C@H](C)C[C@H](C)/C=C/C=C/C=C(\C)C(=O)C[C@@H]3CC[C@@H](C)[C@@](O)(O3)C(=O)C(=O)N3CCCC[C@H]3C(=O)O2)CC[C@H]1O [Example 17, 7-Demethoxy-7-Oxorapamycin] | < 500 nM
CO[C@@H]1C[C@H](C[C@@H](C)[C@@H]2CC(=O)[C@H](C)/C=C(\C)[C@@H](O)[C@@H](OC)C(=O)[C@H](C)C[C@H](C)/C=C/C=C/C=C(\C)[C@@H](O)C[C@@H]3CC[C@@H](C)[C@@](O)(O3)C(=O)C(=O)N3CCCC[C@H]3C(=O)O2)CC[C@H]1O [Example 18, 7-O-Demethylrapamycin] | < 500 nM
CO[C@@H]1C[C@H](C[C@@H](C)[C@@H]2CC(=O)[C@H](C)/C=C(\C)[C@@H](O)[C@@H](OC)C(=O)[C@H](C)C[C@H](C)/C=C/C=C/C=C(\C)[C@H](O)C[C@@H]3CC[C@@H](C)[C@@](O)(O3)C(=O)C(=O)N3CCCC[C@H]3C(=O)O2)CC[C@H]1O [Example 19, 7-O-Demethyl-7-Epirapamycin] | < 500 nM
